SMILES strings stand for the structures. Like-named read-outs stand apart in the source and are kept apart here.

Data set [1] in a line: In vitro protein binding assay, culture media. The class given is in vitro ADME. Particulars: read-out: unbound drug fraction, Culture Media, AVG.
The next data set concerns TRIM24-MET-i PDOX. To be noted: vs vehicle.
Data set [2] is described as follows: in vitro. To be noted: mouse, brain homogenate.
The next data set deals with TRIM24-MET-i cells. As to the kind of experiment: 3-day dose-response assay, TRIM24-MET-i cells. Type of data set: cell-based. To be noted: Homo sapiens.
Data set [3] in a line: in vitro. To be noted: mouse, plasma.
The next data set deals with TRIM24-MET-r cells. Put plainly: 3-day dose-response assay, TRIM24-MET-r cells. Type of data set: cell-based. Particulars: Homo sapiens.

Experimental for TRIM24-MET-i PDOX: All treatments started 18 days after transplantation. Radiotherapy was administered at 0.5 Gy per day, delivering 10 Gy total.
Each line represents one mouse. The ends of lines indicate the onset of neurological symptoms and thereby the endpoints. Treatment started on day 13.

For `COc1cc2nccc(Oc3ccc(NC(=O)C4(C(=O)Nc5ccc(F)cc5)CC4)cc3)c2cc1OC` [Cabozantinib], the unbound share (fraction unbound) (usually the share of the substance not bound to proteins or other matrix) in data set [1] worked out at 0.033; in the data set “in vitro [2]”, 0.0025; in the data set “in vitro [3]”, 0.0017. In addition, in the data set with TRIM24-MET-i PDOX, the “increase of median survival” value is 15.5 days. Besides, the EC50 (commonly the concentration that produces a half-maximal response) in the data set with TRIM24-MET-i cells (72 h, read-out: EC50 Total) stood at 30.3 nM; with TRIM24-MET-i cells (read-out: EC50 Unbound) it was 1 nM; in the data set on TRIM24-MET-r cells (72 h, read-out: EC50 Total), 369 nM; in the data set with TRIM24-MET-r cells (read-out: EC50 Unbound), 12.2 nM. The EC90 (commonly the point of the concentration-response curve where the effect stands at 90%) with TRIM24-MET-i cells (72 h, read-out: EC90 Total) amounted to 556 nM; in the data set on TRIM24-MET-i cells (read-out: EC90 Unbound), 18.3 nM; in the data set with TRIM24-MET-r cells (72 h, read-out: EC90 Total), 44900 nM; with TRIM24-MET-r cells (read-out: EC90 Unbound) it was 1480 nM.

The values are drawn from article PMC11157767 (Molecular Cancer, 2024).
